1 compound from patent publication US20220362167A1, “WATER-DISPERSIBLE CANNABIDIOL PRODUCT AND PREPARATION METHOD THEREFOR” (GUILIN LAYN NATURAL INGREDIENTS CORP., priority 2019, published 2022) can be followed below.

The series is described as follows: Water solubility test of cannabidiol product. In kind it is physicochemical. The settings on record: 50 mg in 500 mL distilled water, room temperature, stirred. How it is done: Water Solubility Test of Cannabidiol Product
Three parts of 500 mL of distilled water are taken. 50 mg of the cannabidiol product prepared in Example 1, Comparative Example 1 and Comparative Example 2 are added respectively at room temperature, and stirred, and recorded the time required for dissolution, with the cannabidiol as control.

SMILES strings stand for the structures.

Regarding `C=C(C)[C@@H]1CCC(C)=C[C@H]1c1c(O)cc(CCCCC)cc1O` [cannabidiol], the “appearance of the solution” value was “precipitation and delamination”.
